The values that follow come from PubChem BioAssay (NCI).

For orientation: TGI means the concentration at which net growth stops. A lower TGI goes with greater sensitivity of the cells. One may read the GI50 as the concentration at which growth is held to half of that of the control.

Structures are written as SMILES.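 Following 48 hours of exposure in 96-well plates, responses at five concentrations were used to interpolate endpoints linearly. Here, GI50 denotes the concentration required for 50% inhibition of growth. TGI: concentration producing complete growth inhibition.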

The test system of one test is SK-MEL-2 melanoma. Nature of the test: DTP human tumour cell line panel, 48 h.
For `CCN(CC)c1ccc(C(=O)c2ccccc2C(=O)O)c(O)c1`, the TGI was above 100 µM.
Still for that read-out and setting: under `COc1ccc(OC)c(NC(=O)C2=C(C)NC(C)=C(C(=O)Nc3cc(OC)ccc3OC)C2c2ccccc2)c1` stands above 100 µM.

A further test concerns HCT-15 colon. The test can be described thus: DTP human tumour cell line panel, 48 h.
For `COc1ccc(-c2nn3c(-c4cc(F)c(Cl)cc4Cl)nnc3s2)cc1`, the GI50 was 18.1 µM and the TGI is above 100 µM.
Regarding `COc1ccc2nc(-c3cccs3)cc(C(O)CN3CCSCC3)c2c1` (configuration not stated), the concentration for total growth inhibition (TGI) was found to be 57.8 µM.
Same read-out and setting: under `O=C(CN1CCOCC1)Nc1nc(-c2ccc(Cl)cc2)cs1` stands above 100 µM.
As for `COc1cc(C(=O)C/C(CCCC(=O)Nc2ccccc2[N+](=O)[O-])=N/NC(=O)c2cc3ccccc3cc2O)ccc1O`, the concentration for total growth inhibition (TGI) was above 74.3 µM.
Same read-out and setting: the result for `CN(C)CCCNC(CC#N)CCC#N` (configuration not stated) reads above 10 µM.
Still for that read-out and setting: the result for `CN(C)C(=O)OC(Cn1cncn1)c1ccc(Cl)cc1Cl` (configuration not stated) reads above 100 µM.
Turning to `CN(C)CCNc1c2c(c(NCCN(C)C)c3[nH]ccc13)C(=O)c1ccccc1C2=O`, the GI50 is 0.168 µM and the concentration for total growth inhibition (TGI) was 3.55 µM.
Consider `CCOC(=O)COc1ccccc1/C=C1\CCC(CN(C)C)C1=O` (configuration not stated), for which the TGI was determined as 9.86 µM. This counts as single-digit micromolar.
On the same count and under the same terms, the result for `CC1=Nc2ccccc2S/C1=C(/C)NNC(=O)C(N)=O` reads above 100 µM; that for `Nn1c(NNC(=O)C(=O)Nc2cc(Cl)c(Cl)cc2Cl)n[nH]c1=S`, above 100 µM.
Consider `Cc1[nH]ccc2c1[nH]c1cc(=O)ccc12`, for which the TGI is above 100 µM.
As for `NCCOCCOCCNc1nc(Cc2ccccc2)nc(NCCCN2CCCC2=O)n1`, the GI50 was above 100 µM and the TGI was above 100 µM.
On to `NC1C[C@H](n2cc(/C=C/Br)c(=O)[nH]c2=O)C[C@@H]1CO` (some centres not stated), for which the TGI is above 100 µM.
With `Oc1cccc2ccc(N/N=C/c3cc(CN4CCCCC4)c(O)c4ncccc34)nc12`, the concentration for 50% growth inhibition (GI50) is 0.0339 µM and the total growth inhibition concentration (TGI) worked out at 1.51 µM.
In turn, `O=C1CC(c2ccc(O)cc2)C2(O1)C(=O)OC(C(O)CO)C2O` (configuration not stated) returned a TGI above 100 µM.
For the compound `CC1=C(C)C(=O)c2c(cc3ccccn23)C1=O`, the TGI stood at 29.9 µM.
Regarding `CC1SC2=NC3=C(c4ccccc4C3=O)C(c3ccc(F)cc3)N2C1=O` (configuration not stated), the concentration for total growth inhibition (TGI) was above 100 µM.
Consider `COC(C(=O)[O][Ge]([CH3])([CH3])[CH3])c1ccccc1` (configuration not stated), for which the GI50 is above 100 µM and the total growth inhibition concentration (TGI) was above 100 µM.
As for `CCCCC(CC)CN=C(N)NC(N)=NCCCCCCN=C(N)NC(N)=NCC(CC)CCCC` (configuration not stated), the GI50 was 2.98 µM and the concentration for total growth inhibition (TGI) is 16.5 µM.
`CC1C=C(OC(=O)c2ccccc2)C(=O)C(n2cc(F)c(=O)[nH]c2=O)O1` (configuration not stated): the concentration for total growth inhibition (TGI) is above 100 µM.
For `Nc1ccccc1C#C/C=C\C#Cc1cccs1`, the GI50 is 9.45 µM and the concentration for total growth inhibition (TGI) stood at 43.7 µM.
Taken in the same sequence, the figures for `COc1ccc(-c2ccc(/C=N/n3c(COc4ccc(Cl)cc4Cl)nn(CN4CCOCC4)c3=S)o2)c([N+](=O)[O-])c1` were 26.9 µM and above 100 µM.
With `CCN(CC)c1ccc(C(=O)c2ccccc2C(=O)O)c(O)c1`, the TGI was above 100 µM.
Same read-out and setting: under `COc1ccc(OC)c(NC(=O)C2=C(C)NC(C)=C(C(=O)Nc3cc(OC)ccc3OC)C2c2ccccc2)c1` stands above 100 µM.

The next test deals with A549 NSCLC. Nature of the test: DTP human tumour cell line panel, 48 h.
Consider `COc1ccc(-c2nn3c(-c4cc(F)c(Cl)cc4Cl)nnc3s2)cc1`, for which the GI50 is 39.1 µM and the TGI is above 100 µM.
`COc1ccc2nc(-c3cccs3)cc(C(O)CN3CCSCC3)c2c1` (configuration not stated) returned a TGI above 100 µM.
Same read-out and setting: under `O=C(CN1CCOCC1)Nc1nc(-c2ccc(Cl)cc2)cs1` stands above 100 µM; under `COc1cc(C(=O)C/C(CCCC(=O)Nc2ccccc2[N+](=O)[O-])=N/NC(=O)c2cc3ccccc3cc2O)ccc1O`, above 100 µM.
Same read-out and setting: the result for `CN(C)CCCNC(CC#N)CCC#N` (configuration not stated) reads above 10 µM; that for `CN(C)C(=O)OC(Cn1cncn1)c1ccc(Cl)cc1Cl` (configuration not stated), above 100 µM.
Regarding `CN(C)CCNc1c2c(c(NCCN(C)C)c3[nH]ccc13)C(=O)c1ccccc1C2=O`, the GI50 was 0.748 µM and the TGI is 13.3 µM.
Take `CCOC(=O)COc1ccccc1/C=C1\CCC(CN(C)C)C1=O` (configuration not stated): the TGI was found to be 42.8 µM.
Same read-out and setting: under `CC1=Nc2ccccc2S/C1=C(/C)NNC(=O)C(N)=O` stands above 100 µM; under `Nn1c(NNC(=O)C(=O)Nc2cc(Cl)c(Cl)cc2Cl)n[nH]c1=S`, above 100 µM; under `Cc1[nH]ccc2c1[nH]c1cc(=O)ccc12`, above 100 µM.
`NCCOCCOCCNc1nc(Cc2ccccc2)nc(NCCCN2CCCC2=O)n1`: the GI50 was above 100 µM and the total growth inhibition concentration (TGI) is above 100 µM.
In the case of `Oc1cccc2ccc(N/N=C/c3cc(CN4CCCCC4)c(O)c4ncccc34)nc12`, the GI50 is 0.0365 µM and the total growth inhibition concentration (TGI) turned out to be 1.15 µM.
With `CC1=C(C)C(=O)c2c(cc3ccccn23)C1=O`, the total growth inhibition concentration (TGI) amounted to 43.1 µM.
With `COc1ccc(-c2n/c(=C\c3c(O)[nH]c4ccc(OC)cc34)cc3c2=Nc2ccccc2-3)cc1`, the GI50 is 3.43 µM and the concentration for total growth inhibition (TGI) was found to be 66.2 µM.
`CC1SC2=NC3=C(c4ccccc4C3=O)C(c3ccc(F)cc3)N2C1=O` (configuration not stated) came in with a TGI above 100 µM.
As for `COC(C(=O)[O][Ge]([CH3])([CH3])[CH3])c1ccccc1` (configuration not stated), the GI50 was above 100 µM and the TGI is above 100 µM.
`CC1C=C(OC(=O)c2ccccc2)C(=O)C(n2cc(F)c(=O)[nH]c2=O)O1` (configuration not stated) came in with a TGI above 100 µM.
Regarding `Nc1ccccc1C#C/C=C\C#Cc1cccs1`, the GI50 is 10.4 µM and the TGI was above 42.5 µM.
For the compound `COc1ccc(-c2ccc(/C=N/n3c(COc4ccc(Cl)cc4Cl)nn(CN4CCOCC4)c3=S)o2)c([N+](=O)[O-])c1`, the GI50 is 24.1 µM and the total growth inhibition concentration (TGI) was above 100 µM.
`CCN(CC)c1ccc(C(=O)c2ccccc2C(=O)O)c(O)c1` returned a concentration for total growth inhibition (TGI) above 100 µM.
The compound `COc1ccc(OC)c(NC(=O)C2=C(C)NC(C)=C(C(=O)Nc3cc(OC)ccc3OC)C2c2ccccc2)c1` had a total growth inhibition concentration (TGI) above 100 µM.

A further test deals with SR leukemia. Nature of the test: DTP human tumour cell line panel, 48 h.
With `NCCOCCOCCNc1nc(Cc2ccccc2)nc(NCCCN2CCCC2=O)n1`, the GI50 is above 100 µM and the TGI was above 100 µM.
The compound `CC1=C(C)C(=O)c2c(cc3ccccn23)C1=O` showed a TGI of 72.5 µM.
